We go through 17 compounds from PubChem BioAssay AID624167 (Sanford-Burnham Center for Chemical Genomics, 2012).

Common to all, as to experiment: inhibition of PEG-3 promoter-driven reporter – cell-based, HeLa, luciferase, CREF/GAPDH counter-screen panel, dose response (AID 624167)
For assay [1], the target named is PEG-3 (UniProt Q6IN02). The note with it: HeLa PEG-Prom luciferase reporter, overnight, CREF/GAPDH counter-screens, mean of runs.
A further assay has as its system Rat fibroblasts (CREF). The note with it: CREF/GAPDH counter-screens. In general terms: Counterscreens check selectivity or assay interference.
The subject of assay [2] is PEG-3. Particulars: HeLa PEG-Prom luciferase reporter, overnight, CREF/GAPDH counter-screens. In general terms: A reporter such as luciferase makes a cellular process visible.
Setting [3] is: run 1, dose range 1, individual replicate IC50 per panel.
[4] abbreviates: run 2, dose range 1, individual replicate IC50 per panel.

SMILES strings stand for the structures. The source made the active and inactive calls.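 How the source made its calls: active means mean IC50 for reducing PEG3 promoter reporter signal at or below a set limit, with IC50 above the limit in both counter screens; inactive means the rest, including counter screen hits.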

PEG-3 (UniProt Q6IN02), sequence (Q6IN02 whole entry, looked up): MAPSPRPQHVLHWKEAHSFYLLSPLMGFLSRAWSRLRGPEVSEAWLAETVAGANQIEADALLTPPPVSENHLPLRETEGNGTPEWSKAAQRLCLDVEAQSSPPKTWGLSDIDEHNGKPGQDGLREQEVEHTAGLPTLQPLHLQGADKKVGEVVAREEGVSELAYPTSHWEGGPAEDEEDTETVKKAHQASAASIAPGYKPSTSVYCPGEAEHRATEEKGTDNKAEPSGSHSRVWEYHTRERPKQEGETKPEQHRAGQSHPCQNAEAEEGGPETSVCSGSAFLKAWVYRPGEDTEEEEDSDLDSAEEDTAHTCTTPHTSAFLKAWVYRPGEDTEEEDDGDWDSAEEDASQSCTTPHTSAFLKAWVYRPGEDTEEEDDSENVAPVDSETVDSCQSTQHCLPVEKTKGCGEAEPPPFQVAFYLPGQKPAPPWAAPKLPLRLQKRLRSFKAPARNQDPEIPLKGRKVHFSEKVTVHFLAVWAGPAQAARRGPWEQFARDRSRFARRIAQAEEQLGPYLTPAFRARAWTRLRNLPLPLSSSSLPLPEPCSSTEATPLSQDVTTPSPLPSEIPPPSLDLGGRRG

For the compound `CC1CCCN(c2ncnc3c2cnn3-c2ccc(Cl)cc2)C1` (configuration not stated), the IC50 (in general, the concentration that gives 50% inhibition) on PEG-3 [1] is 7200 nM; in the assay on Rat fibroblasts (CREF) (mean of runs), 1980 nM; in the assay on Rat fibroblasts (CREF) (setting [3]), 1780 nM; with Rat fibroblasts (CREF) (setting [4]) it was 2170 nM; in the assay on PEG-3 [2] (setting [3]), 6000 nM; with PEG-3 [2] (setting [4]), 8400 nM.
Consider `Cc1ccc(-c2cn3cc(C)ccc3n2)cc1`, for which the 50% inhibitory concentration (IC50) is 722 nM at PEG-3 [1]; 1280 nM in the assay on Rat fibroblasts (CREF) (mean of runs); 1010 nM in the assay on Rat fibroblasts (CREF) (setting [3]); 1540 nM in the assay with Rat fibroblasts (CREF) (setting [4]); 729 nM in the assay on PEG-3 [2] (setting [3]); 715 nM in the assay with PEG-3 [2] (setting [4]).
For the compound `C(=N\Nc1nc2ccccc2[nH]1)/c1ccccn1`, the IC50 on PEG-3 [1] was 4060 nM; in the assay on Rat fibroblasts (CREF) (mean of runs), 1480 nM; in the assay on Rat fibroblasts (CREF) (setting [3]), 1140 nM; in the assay with Rat fibroblasts (CREF) (setting [4]) it was 1830 nM; with PEG-3 [2] (setting [3]), 4260 nM; in the assay on PEG-3 [2] (setting [4]) it was 3870 nM.
As for `COc1ccc(C(=O)Nc2nc3ccccc3s2)c(OC)c1`, the IC50 at PEG-3 [1] is 1750 nM; in the assay with Rat fibroblasts (CREF) (mean of runs), 319 nM; in the assay on Rat fibroblasts (CREF) (setting [3]) it was 328 nM; with Rat fibroblasts (CREF) (setting [4]) it was 309 nM; in the assay on PEG-3 [2] (setting [3]), 2560 nM; in the assay on PEG-3 [2] (setting [4]), 950 nM.
For the compound `O=C(NC1=NCCS1)C1COc2ccccc2O1` (configuration not stated), the half-inhibitory concentration (IC50) was 1880 nM at PEG-3 [1]; 15100 nM in the assay with Rat fibroblasts (CREF) (mean of runs); 14500 nM in the assay on Rat fibroblasts (CREF) (setting [3]); 15700 nM in the assay with Rat fibroblasts (CREF) (setting [4]); 1360 nM in the assay with PEG-3 [2] (setting [3]); 2390 nM in the assay with PEG-3 [2] (setting [4]).
As to `COc1cccc(/C=N/NC(=O)c2ccc(-c3ccccc3)cc2)c1O`, the IC50 on PEG-3 [1] was 2530 nM; in the assay with Rat fibroblasts (CREF) (mean of runs), 24900 nM; in the assay with Rat fibroblasts (CREF) (setting [3]), 19600 nM; with Rat fibroblasts (CREF) (setting [4]), 30200 nM; in the assay on PEG-3 [2] (setting [3]), 3330 nM; in the assay with PEG-3 [2] (setting [4]), 1730 nM.
For `CC(=O)N1CCCC(c2cc(C(=O)Nc3ccccc3)no2)C1` (configuration not stated), the IC50 was 6410 nM at PEG-3 [1]; 9510 nM with Rat fibroblasts (CREF) (mean of runs); 9260 nM in the assay with Rat fibroblasts (CREF) (setting [3]); 9760 nM in the assay with Rat fibroblasts (CREF) (setting [4]); 4870 nM in the assay on PEG-3 [2] (setting [3]); 7940 nM with PEG-3 [2] (setting [4]).
With `O=c1cc(-c2ccc(O)cc2)oc2ccc3ccccc3c12`, the IC50 on PEG-3 [1] was 4080 nM; with Rat fibroblasts (CREF) (mean of runs) it was 1230 nM; in the assay on Rat fibroblasts (CREF) (setting [3]), 883 nM; in the assay with Rat fibroblasts (CREF) (setting [4]), 1570 nM; with PEG-3 [2] (setting [3]), 4650 nM; in the assay with PEG-3 [2] (setting [4]), 3520 nM.
In the case of `C(=NNc1ccc2ccccc2n1)c1ccccn1`, the IC50 on PEG-3 [1] is 1660 nM; with Rat fibroblasts (CREF) (mean of runs), 1440 nM; in the assay on Rat fibroblasts (CREF) (setting [3]) it was 1330 nM; with Rat fibroblasts (CREF) (setting [4]), 1550 nM; in the assay with PEG-3 [2] (setting [3]), 1210 nM; with PEG-3 [2] (setting [4]), 2110 nM.
Turning to `COC1=CC(=O)c2c(ccc3ncnc(N)c23)C1=O`, the concentration for half-maximal inhibition (IC50) at PEG-3 [1] is 1010 nM; in the assay on Rat fibroblasts (CREF) (mean of runs), 935 nM; in the assay on Rat fibroblasts (CREF) (setting [3]), 875 nM; in the assay with Rat fibroblasts (CREF) (setting [4]), 995 nM; in the assay with PEG-3 [2] (setting [3]), 1480 nM; with PEG-3 [2] (setting [4]) it was 547 nM.
As for `CC(C)(C)c1ccc(C(=O)O/N=C(\N)c2ccccn2)cc1`, the IC50 entry at PEG-3 [1] was “inactive”. For the same compound, the IC50 with Rat fibroblasts (CREF) (mean of runs) is 9840 nM; in the assay with Rat fibroblasts (CREF) (setting [3]), 9330 nM; in the assay on Rat fibroblasts (CREF) (setting [4]), 10300 nM; with PEG-3 [2] (setting [3]), 367 nM; in the assay on PEG-3 [2] (setting [4]), > 100000 nM.
For `COc1cc(SC)ccc1C(=O)Nc1nc2ccccc2[nH]1`, on PEG-3 [1], the IC50 result was “inactive”. The IC50 with Rat fibroblasts (CREF) (mean of runs) is 296 nM; in the assay with Rat fibroblasts (CREF) (setting [3]), 305 nM; in the assay on Rat fibroblasts (CREF) (setting [4]), 288 nM; in the assay with PEG-3 [2] (setting [3]), 377 nM; with PEG-3 [2] (setting [4]), > 100000 nM.
On to `Fc1ccc(-c2nnc(NC3=NCCCCC3)o2)cc1`, for which the 50% inhibitory concentration (IC50) at PEG-3 [1] is 4060 nM; in the assay with Rat fibroblasts (CREF) (mean of runs), 3580 nM; in the assay with Rat fibroblasts (CREF) (setting [3]), 3940 nM; in the assay on Rat fibroblasts (CREF) (setting [4]), 3230 nM; in the assay with PEG-3 [2] (setting [3]), 4110 nM; with PEG-3 [2] (setting [4]), 4000 nM.
On to `Cc1cc(S(=O)(=O)c2ccc(Cl)cc2)nc(S(=O)(=O)c2ccc(Cl)cc2)c1C#N`, for which the IC50 at PEG-3 [1] was 5140 nM; in the assay with Rat fibroblasts (CREF) (mean of runs), 13100 nM; in the assay with Rat fibroblasts (CREF) (setting [3]), 10900 nM; in the assay on Rat fibroblasts (CREF) (setting [4]), 15300 nM; with PEG-3 [2] (setting [3]) it was 6140 nM; in the assay on PEG-3 [2] (setting [4]), 4140 nM.
With `COc1cc(NS(C)(=O)=O)ccc1Nc1c2ccccc2nc2ccccc12`, the concentration for half-maximal inhibition (IC50) on PEG-3 [1] was 10700 nM; with Rat fibroblasts (CREF) (mean of runs), 4970 nM; in the assay on Rat fibroblasts (CREF) (setting [3]), 8610 nM; with Rat fibroblasts (CREF) (setting [4]), 1330 nM; in the assay on PEG-3 [2] (setting [3]), 11000 nM; in the assay on PEG-3 [2] (setting [4]), 10400 nM.
As for `C(=Cc1cnc2ccccc2n1)c1ccc2c(c1)OCO2`, the concentration for half-maximal inhibition (IC50) on PEG-3 [1] was 1490 nM; with Rat fibroblasts (CREF) (mean of runs) it was 1120 nM; in the assay with Rat fibroblasts (CREF) (setting [3]), 1020 nM; in the assay with Rat fibroblasts (CREF) (setting [4]), 1210 nM; in the assay on PEG-3 [2] (setting [3]), 1700 nM; in the assay on PEG-3 [2] (setting [4]) it was 1270 nM.
`C=CCn1c(C)cc(C(=O)CN2C(=O)c3ccccc3S2(=O)=O)c1C`: the half-inhibitory concentration (IC50) is 550 nM at PEG-3 [1]; 2710 nM in the assay with Rat fibroblasts (CREF) (mean of runs); 1680 nM in the assay with Rat fibroblasts (CREF) (setting [3]); 3730 nM with Rat fibroblasts (CREF) (setting [4]); 795 nM in the assay with PEG-3 [2] (setting [3]); 306 nM in the assay with PEG-3 [2] (setting [4]).
